Each compound was assayed against T1, NIK (Homo sapiens, UniProt Q99558) (assay: homogenous time resolved fluorescence (HTRF) assay for NIK Ki measurement). Settings: truncated NIK (catalytic domain only), autophosphorylation; 10 nM enzyme; 20, 100, 200 or 500 μM ATP; room temperature, 2 hours; read-out: Ki activity in the homogenous time resolved fluorescence (HTRF) assay for NIK.
T1 construct: Both assays utilize a truncated form of NIK containing only the catalytic domain; made in house; host or cells: baculovirus expression system (insect cells implied)
T1 sequence (Q99558 400-655 limits assumed): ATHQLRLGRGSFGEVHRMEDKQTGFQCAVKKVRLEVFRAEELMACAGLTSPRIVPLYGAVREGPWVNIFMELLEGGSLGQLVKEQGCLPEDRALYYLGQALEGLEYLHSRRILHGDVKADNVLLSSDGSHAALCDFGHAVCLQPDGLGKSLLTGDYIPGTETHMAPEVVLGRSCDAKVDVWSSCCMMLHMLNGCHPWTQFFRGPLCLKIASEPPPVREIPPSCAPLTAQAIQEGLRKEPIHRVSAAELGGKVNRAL
Type: biochemical

Compound	Ki
CC(O)(C#Cc1ccc2ccn(-c3ccncc3)c2c1)c1nccs1 (stereo not drawn) [Example 299, 4-(1-(4-Pyridinyl)-1H-indol-6-yl)-2-(1,3-thiazol-2-yl)-3-butyn-2-ol]	< 1 µM
COCCNC(=O)c1[nH]c2ccc(C#CC3(O)CCCC3)cc2c1-c1ccnc(N)n1 [Example 96, 3-(2-aminopyrimidin-4-yl)-5-(2-(1-hydroxycyclopentyl)ethynyl)-N-(2-methoxyethyl)-1H-indole-2-carboxamide]	< 1 µM
COCCOc1cnc(N)nc1-c1c[nH]c2ccc(C#CC(O)(c3cccc(F)c3)C(F)(F)F)cc12 (stereo not drawn) [Example 236, 4-(3-(2-Amino-5-(2-methoxyethoxy)-4-pyrimidinyl)-1H-indol-5-yl)-1,1,1-trifluoro-2-(3-fluorophenyl)-3-butyn-2-ol]	1 to 30 µM
COc1cnc(N)nc1-c1c[nH]c2ccc(C#CC3(O)CCCC3)cc12 [Example 227, 1-((3-(2-Amino-5-methoxy-4-pyrimidinyl)-1H-indol-5-yl)ethynyl)cyclopentanol]	< 1 µM
CC(O)(C#Cc1ccc2c(c1)N(c1ccnc(N)n1)CC2)c1ccncc1 (stereo not drawn) [Example 272, 4-(1-(2-Amino-4-pyrimidinyl)-2,3-dihydro-1H-indol-6-yl)-2-(4-pyridinyl)-3-butyn-2-ol]	1 to 30 µM
Cc1cc([C@](C)(O)C#Cc2ccc(F)c(Nc3nc(N)ncc3Cl)c2)no1 [Example 176, (R)-4-(3-(2-Amino-5-chloropyrimidin-4-ylamino)-4-fluorophenyl)-2-(5-methylisoxazol-3-yl)but-3-yn-2-ol]	< 1 µM
C[C@](O)(C#Cc1ccc2c(c1)N(c1nc(N)ncc1Cl)C[C@@]21CCOC1)c1nccs1 (stereo in doubt) [Example 199, (2S)-4-((3R*)-1′-(2-Amino-5-chloro-4-pyrimidinyl)-1′,2′,4,5-tetrahydrospiro[furan-3,3′-indol]-6′-yl)-2-(1,3-thiazol-2-yl)-3-butyn-2-ol]	1 to 30 µM
COCCOc1cnc(N)nc1-c1c[nH]c2ccc(C#CC3(O)CCOCC3)cc12 [Example 226, 4-((3-(2-Amino-5-(2-methoxyethoxy)-4-pyrimidinyl)-1H-indol-5-yl)ethynyl)tetrahydro-2H-pyran-4-ol]	1 to 30 µM
C[C@](O)(C#Cc1ccc2c(c1)N(c1nc(N)ncc1Cl)CC21CCOCC1)c1nccs1 (single isomer, unassigned) [Example 209a]	1 to 30 µM
COCCN(C)C1CCn2c1c(-c1ccncn1)c1cc(C#CC(C)(O)c3nccs3)ccc12 (single isomer, unassigned) [Example 87, 4-((R*)-1-((2-methoxyethyl)(methyl)amino)-9-(pyrimidin-4-yl)-2,3-dihydro-1H-pyrrolo[1,2-a]indol-7-yl)-2-(thiazol-2-yl)but-3-yn-2-ol]	< 1 µM
Cc1cc([C@@](C)(O)C#Cc2ccc3c(c2)N(c2nc(N)ncc2Cl)CC3)on1 (single isomer, unassigned) [Example 28]	1 to 30 µM
Nc1ncc(F)c(-c2cn(CC3CCOC3)c3ccc(C#CC4(O)CCCC4)cc23)n1 (stereo not drawn) [Example 135, 1-(2-(3-(2-amino-5-fluoropyrimidin-4-yl)-1-((tetrahydrofuran-3-yl)methyl)-1H-indol-5-yl)ethynyl)cyclopentanol]	< 1 µM
COCCOc1cnc(N)nc1-c1c[nH]c2ccc(C#CC3(O)CCCC3)cc12 [Example 223, 1-((3-(2-Amino-5-(2-methoxyethoxy)-4-pyrimidinyl)-1H-indol-5-yl)ethynyl)cyclopentanol]	< 1 µM
Cc1ccnc(C(C)(O)C#Cc2ccc3c(c2)N(c2nc(N)ncc2Cl)CC3)c1 (stereo not drawn) [Example 5, 4-(1-(2-amino-5-chloropyrimidin-4-yl)indolin-6-yl)-2-(4-methylpyridin-2-yl)but-3-yn-2-ol]	< 1 µM
Cc1nonc1C(C)(O)C#Cc1ccc2c(c1)N(c1nc(N)ncc1Cl)CC2 (stereo not drawn) [Example 6, 4-(1-(2-amino-5-chloropyrimidin-4-yl)indolin-6-yl)-2-(4-methyl-1,2,5-oxadiazol-3-yl)but-3-yn-2-ol]	1 to 30 µM

The remaining lines, values ahead:

Ki	Compound
< 1 µM	CC(O)(C#Cc1ccc2ncc(-c3nc(N)ncc3Cl)n2c1)c1ncco1 (stereo not drawn) [Example 309, 4-(3-(2-Amino-5-chloro-4-pyrimidinyl)imidazo[1,2-a]pyridin-6-yl)-2-(1,3-oxazol-2-yl)-3-Butyn-2-ol]
< 1 µM	Cc1cnc(C(C)(O)C#Cc2ccc3ncc(-c4nc(N)ncc4Cl)n3c2)s1 (stereo not drawn) [Example 300, 4-(3-(2-Amino-5-chloro-4-pyrimidinyl)imidazo[1,2-a]pyridin-6-yl)-2-(5-methyl-1,3-thiazol-2-yl)-3-butyn-2-ol]
1 to 30 µM	CN1CCC2(C1)CN(c1nc(N)ncc1Cl)c1cc(C#C[C@](C)(O)c3nccs3)ccc12 (single isomer, unassigned) [Example 194, (2S)-4-((3R*)-1-(2-Amino-5-chloro-4-pyrimidinyl)-1′-methyl-1,2-dihydrospiro[indole-3,3′-pyrrolidin]-6-yl)-2-(1,3-thiazol-2-yl)-3-butyn-2-ol]
< 1 µM	CC(O)(C#Cc1ccc(OC2CCOCC2)c(Nc2ncncc2Cl)c1)c1nccs1 (stereo not drawn) [Example 171, 4-(3-(5-Chloropyrimidin-4-ylamino)-4-(tetrahydro-2H-pyran-4-yloxy)phenyl)-2-(thiazol-2-yl)but-3-yn-2-ol]
< 1 µM	CC(C)(C#Cc1ccc2c(c1)N(c1nc(N)ncc1Cl)CC2(C)CO)CO (single isomer, unassigned) [Example 58, 4-((3S*)-1-(2-amino-5-chloro-4-pyrimidinyl)-3-(hydroxymethyl)-3-methyl-2,3-dihydro-1H-indol-6-yl)-2,2-dimethyl-3-Butyn-1-ol]
1 to 30 µM	CC1(C)CN(c2nc(N)ncc2Cl)c2cc(C#C[C@](C)(O)c3nccs3)ccc21 (single isomer, unassigned) [Example 41]
1 to 30 µM	C[C@](O)(C#Cc1ccc2c(c1)N(c1nc(N)ncc1Cl)CC21COC1)c1nccs1 [Example 81]
< 1 µM	CC(O)(C#Cc1ccc2c(c1)N(c1ccnc(N)n1)CC2)C1CCCC1 (stereo not drawn) [Example 293, 4-(1-(2-Amino-4-pyrimidinyl)-2,3-dihydro-1H-indol-6-yl)-2-cyclopentyl-3-butyn-2-ol]
< 1 µM	CC(O)(C#Cc1ccc2c(c1)N(c1nc(N)ncc1Cl)CC21CCCOC1)c1nccs1 (stereo not drawn) [Example 248, 4-(1-(2-Amino-5-chloro-4-pyrimidinyl)-1,2,5′,6′-tetrahydro-4′H-spiro[indole-3,3′-pyran]-6-yl)-2-(1,3-thiazol-2-yl)-3-butyn-2-ol]
< 1 µM	COCCN(C)C1CCn2c1c(-c1ccncn1)c1cc(C#CC(C)(O)c3nccs3)ccc12 (stereo not drawn) [Example 105, 4-(1-((2-methoxyethyl)(methyl)amino)-9-(pyrimidin-4-yl)-2,3-dihydro-1H-pyrrolo[1,2-a]indol-7-yl)-2-(thiazol-2-yl)but-3-yn-2-ol]
< 1 µM	COc1ccc(C#CC(C)(O)c2cc(C)on2)cc1Nc1nc(N)ncc1Cl (stereo not drawn) [Example 150, 4-(3-(2-Amino-5-chloropyrimidin-4-ylamino)-4-methoxyphenyl)-2-(5-methylisoxazol-3-yl)but-3-yn-2-ol]
< 1 µM	CCN(CC)CCNC(=O)c1ccc(Nc2nccc(N3CCc4ccc(C#CC5(O)CCCC5)cc43)n2)cc1 [Example 262, N-(2-(diethylamino)ethyl)-4-((4-(6-((1-hydroxycyclopentyl)ethynyl)-2,3-dihydro-1H-indol-1-yl)-2-pyrimidinyl)amino)benzamide]
< 1 µM	CCC(C)(O)C#Cc1ccc2c(c1)N(c1ccnc(N)n1)CC2 (stereo not drawn) [Example 265, 1-(1-(2-Amino-4-pyrimidinyl)-2,3-dihydro-1H-indol-6-yl)-3-methyl-1-pentyn-3-ol]
< 1 µM	Cn1cnc(C(C)(O)C#Cc2ccc3c(c2)N(c2nc(N)ncc2Cl)CC3(C)C)c1 (stereo not drawn) [Example 45, 4-(1-(2-amino-5-chloro-4-pyrimidinyl)-3,3-dimethyl-2,3-dihydro-1H-indol-6-yl)-2-(1-methyl-1H-imidazol-4-yl)-3-butyn-2-ol]
< 1 µM	CC(O)(C#Cc1ccc2c(c1)N(c1ccnc(N)n1)CC2)C1CCC1 (stereo not drawn) [Example 21, 4-(1-(2-aminopyrimidin-4-yl)indolin-6-yl)-2-cyclobutylbut-3-yn-2-ol]
< 1 µM	CC1(CCCO)CN(c2nc(N)ncc2Cl)c2cc(C#CC3(O)CCCC3)ccc21 (stereo not drawn) [Example 63, 1-((1-(2-amino-5-chloro-4-pyrimidinyl)-3-(3-hydroxypropyl)-3-methyl-2,3-dihydro-1H-indol-6-yl)ethynyl)cyclopentanol]
< 1 µM	C[C@@](O)(C#Cc1ccc2c(c1)N(c1nc(N)ncc1Cl)CC21CCS(=O)(=O)CC1)c1nccs1 [Example 218, (2R)-4-(1-(2-Amino-5-chloro-4-pyrimidinyl)-1′,1′-dioxido-1,2,2′,3′,5′,6′-hexahydrospiro[indole-3,4′-thiopyran]-6-yl)-2-(1,3-thiazol-2-yl)-3-butyn-2-ol]
< 1 µM	COCCOc1cncnc1-c1c[nH]c2ccc(C#CC3(O)CCCC3)cc12 [Example 237, 1-((3-(5-(2-Methoxyethoxy)-4-pyrimidinyl)-1H-indol-5-yl)ethynyl)cyclopentanol]
< 1 µM	COc1ccc(C#C[C@@](C)(O)c2nccs2)cc1Nc1nc(N)ncc1Cl [Example 146, (R)-4-(3-(2-Amino-5-chloropyrimidin-4-ylamino)-4-methoxyphenyl)-2-(thiazol-2-yl)but-3-yn-2-ol]
< 1 µM	Nc1ncc2c(n1)-c1c([nH]c3ccc(C#CC4(O)CCCC4)cc13)C(=O)NC2 [Example 243, 2-Amino-11-((1-hydroxycyclopentyl)ethynyl)-5,8-dihydropyrimido[4′,′:5,6]azepino[3,4-b]indol-7(6H)-one]
< 1 µM	CC(C)C(=O)n1cc(-c2nc(N)ncc2Cl)c2cc(C#CC3(O)CCCC3)ccc21 [Example 119, 1-(3-(2-amino-5-chloropyrimidin-4-yl)-5-(2-(1-hydroxycyclopentyl)ethynyl)-1H-indol-1-yl)-2-methylpropan-1-one]

From patent publication US20110086834A1, “ALKYNYL ALCOHOLS AS KINASE INHIBITORS” (AMGEN INC., priority 2008, published 2011)
